Measurements reported in the NIST ThermoML archive (doi:10.1021/je0498053).

Experiment: xn = mol fraction of the nth substance listed
Settings: 101.3 kPa, Liquid

CCCCC(C)O (stereo unspecified) [2-hexanol] + CCCCN
Settings	mass density, 303.15 K [kg/m3]	mass density, 313.15 K [kg/m3]	mass density, 323.15 K [kg/m3]	viscosity, 303.15 K [mPa·s]	viscosity, 313.15 K [mPa·s]	viscosity, 323.15 K [mPa·s]
x2 = 0	806.4	798.4	790.1	3.23	2.29	1.64
x2 = 0.1	802	794.2	786	2.67	1.97	1.45
x2 = 0.2	796.7	788.9	780.6	2.19	1.68	1.26
x2 = 0.3	791.5	783.7	775.3	1.78	1.4	1.1
x2 = 0.4	785	776.9	768.5	1.47	1.17	0.93
x2 = 0.5	777.7	769.4	760.8	1.2	0.98	0.79
x2 = 0.6	769.8	761.4	751.1	0.97	0.81	0.67
x2 = 0.6999	760.7	752.1	741.6	0.79	0.68	0.57
x2 = 0.8	751.3	742.7	732.4	0.65	0.56	0.47
x2 = 0.9	742.1	732.9	722.9	0.53	0.47	0.4

CCCCN [1-butanamine] + CCCC(C)CO
x1 = 1
Settings	mass density [kg/m3]	viscosity [mPa·s]
303.15 K	732.1	0.46
313.15 K	722.9	0.4
323.15 K	712.7	0.36

CCCC(C)(C)O [2-methyl-2-pentanol] + CCCCN
Settings	mass density, 303.15 K [kg/m3]	mass density, 313.15 K [kg/m3]	mass density, 323.15 K [kg/m3]	viscosity, 303.15 K [mPa·s]	viscosity, 313.15 K [mPa·s]	viscosity, 323.15 K [mPa·s]
x2 = 0	810.8	802.4	793.5	2.93	2.06	1.46
x2 = 0.1	806.7	798.2	789.2	2.62	1.88	1.34
x2 = 0.2	801.5	793.1	784	2.25	1.66	1.2
x2 = 0.3	795.7	787.2	778.2	1.86	1.41	1.04
x2 = 0.4	788.8	780.2	771.2	1.55	1.2	0.92
x2 = 0.4999	781.4	772.8	763.7	1.26	1	0.79
x2 = 0.5999	772.9	764.2	754.7	1.01	0.83	0.67
x2 = 0.7	763.8	755	745.1	0.82	0.69	0.57
x2 = 0.8	753.4	744.3	734.3	0.66	0.57	0.48
x2 = 0.9	742.4	733.3	723.6	0.54	0.47	0.41
